{"source": "patent US12358913B2", "about": "“Crystal of diarylthiohydantoin compound” (CHIA TAI TIANQING PHARMACEUTICAL GROUP CO., LTD., priority 2019, dated 2025)", "key": {"[1]": {"assay": "Tissue distribution test (plasma and brain) in male CD-1 mice", "assay_type": "in vivo", "settings": "intragastric administration, 2 mg/kg, 4 h", "description": "Taking male CD-1 mice as test animals, the drug concentrations in the plasma and brain of the mice after intragastric administration of the compound of formula I were determined by an LC/MS/MS method.\n2.2 Test Animals: 2 Healthy Adult Male CD-1 Mice. Animals were Purchased from Shanghai Sippe-Bk Lab Animal Co., Ltd.\nAn appropriate amount of sample was added into 0.5% CMC/0.2% Tween aqueous solution, and the mixture was stirred and ultrasonicated to a suspension state (0.4 mg/mL).\nTwo male CD-1 mice, after fasting overnight, were subjected to intragastric administration at a volume of 5 mL/kg and a dosage of 2 mg/kg.\nMale CD-1 mice, after intragastric administration of the compound of formula I, were subjected to 100 μL of blood collection by cardiac puncture at 4 h, and the blood was placed in tubes containing 2 μL of EDTA-K2 and centrifuged at 3000 g for 15 min to separate out 30 μL of plasma, which was stored at −60° C. Meanwhile, brain tissues were collected, washed, homogenized with 9-fold 15 mM PBS/MeOH (v: v, 2:1), and stored at −60° C. The animals were allowed to eat 4 h after administration.\nLC/MS/MS method was used to determine the content of test compound in the plasma and brain of mice after intragastric administration. The linear range of the method was 2.00-6000 nmol/L; plasma samples were analyzed after treatment with acetonitrile to precipitate proteins."}, "[2]": {"assay": "Pharmacokinetic test in male CD-1 mice, plasma by LC/MS/MS", "assay_type": "in vivo", "settings": "mouse, po, intragastric administration, 2 mg/kg", "description": "Taking male CD-1 mice as test animals, the drug concentrations in the plasma of the mice at different time points after intravenous and intragastric administration of the compound of formula I were determined by an LC/MS/MS method. This example aims to investigate the pharmacokinetic performance of the compound of formula I in mice and to evaluate the pharmacokinetic characteristics.\n2.2 Test Animals: 4 Healthy Adult Male CD-1 Mice, which were Divided into 2 Groups (2 Mice in Each Group) According to the Body Weight. Animals were Purchased from Shanghai Sippe-Bk Lab Animal Co., Ltd., and Animal Production License Number was SCXK (Shanghai) 2013-0016. 2.3 Drug Preparation\nAn appropriate amount of sample was weighed, and sequentially added with an appropriate amount of DMSO, PEG400 and water according to the volume ratio of 10:40:50, and the mixture was stirred and ultrasonicated to a clear state (0.4 mg/mL) for intravenous administration. […]\nLC/MS/MS method was used to determine the content of the test compound in the plasma of mice after intravenous and intragastric administration. The linear range of the method was 2.00-6000 nmol/L; plasma samples were analyzed after treatment with acetonitrile to precipitate proteins."}, "[3]": {"test_system": "human prostate cancer LNCaP-FGC cells", "assay": "In vivo pharmacodynamic study on subcutaneous xenograft tumor model of human prostate cancer LNCaP-FGC cells", "parameters": "species or system CB-17 SCID mouse", "settings": "for Relative tumor proliferation rate T/C / TGI: after 21 days of administration", "description": "Human prostate cancer LNCaP-FGC cells (ATCC, Manassas, VA) were cultured in vitro, in a monolayer way, in an RPMI1640 medium containing 10% fetal bovine serum at 37° C. and 5% CO2. Routine digestion treatment with pancreatin-EDTA was performed twice a week for passage. When the saturation degree of the cells is 80-90%, the cells were collected, counted and inoculated.\n0.2 mL (10×10^6) of LNCaP-FGC cells (10×10^6+Matrigel, 1:1) were inoculated subcutaneously into the right back of each CB-17 SCID mouse. The mice were divided into groups for administration when the mean tumor volume reached 100-150 mm^3.\nTumor diameters were measured twice weekly using a vernier caliper. The calculation formula for tumor volume was: V=0.5a×b^2, with a and b representing the long and short diameters of the tumor, respectively. The anti-tumor therapeutic effect of the compound was evaluated by TGI (%) or relative tumor proliferation rate T/C (%). TGI (%)=[(1−(average tumor volume of a treatment group at the end of administration−average tumor volume of the treatment group at the start of administration))/(average tumor volume of a vehicle control group at the end of treatment-average tumor volume of the vehicle control group at the start of treatment)]×100%. The calculation formula for relative tumor proliferation rate T/C (%) was as follows: T/C %=TRTV/CRTV×100% (TRTV: RTV of treatment group; CRTV: RTV of negative control group). Relative tumor volume (RTV) was calculated based on the results of tumor measurement. The calculation formula was: RTV=Vt/V0, wherein V0 was the average tumor volume measured at the time of grouping and administration (i.e., d0), Vt was the average tumor volume at a certain measurement, and the data of TRTV and CRTV were obtained on the same day.\nStatistical analysis included mean and standard error of mean (SEM) of tumor volume at each time point for each group. […] Comparison between two groups was analyzed using T-test, comparison among three or more groups was analyzed using one-way ANOVA. […] If there was […] in F values, Dunnet (2-sided) method was used for analysis. All data analysis was performed with SPSS 17.0. “P<0.05” was defined as a significant difference."}, "[4]": {"assay": "Solid stability of the crystal, purity by HPLC", "assay_type": "physicochemical", "description": "References were made to the requirements in the “Guidelines for the Stability Test of APIs and Preparations” (Appendix XIX C of the Volume Two of the Chinese Pharmacopoeia, 2010 Edition) for the conditions and the method for the stability test of the crystal, and the stability of the crystalline solid under conditions of different influence factors was studied with the crystal prepared in Example 2 as a test sample.\nHigh performance liquid chromatography (HPLC): column: Waters xbridge shiled RP18 (150 mm*4.6 mm, 3.5 μm); PN: 186003045; wavelength: 228 nm; mobile phase A: pH 4.5, 5 mmol/L sodium acetate buffer solution (pH adjusted with phosphoric acid); mobile phase B: acetonitrile; elution mode: gradient elution."}, "[5]": {"assay": "Hygroscopicity by dynamic vapor sorption (DVS)", "assay_type": "physicochemical", "settings": "25±1° C. and 80±2% RH", "description": "Instrument model: SMS DVS Advantage\nTest conditions: a sample (10-15 mg) of the crystal of the compound of formula I prepared in Example 2 was placed in a DVS sample tray for testing.\nThe detailed DVS parameters were as follows:\nBalancing: dm/dt=0.01%/min (shortest: 10 min, longest: 180 min)\nDrying: drying at 0% RH for 120 min\nRH (%) test gradient: 10%\nRange of RH (%) test gradient: 0%-90%-0%\nNote: ΔW % represents the moisture gain of the test compound at 25±1° C. and 80±2% RH."}}, "note": "Values joined by “and” are separate entries in the source; they are usually repeats but may differ in a detail not shown here. Identical values can stand only once.", "data": [{"molecule": "CCc1cc(=O)n2cc(N3C(=S)N(c4ccc(C#N)c(Cl)c4)C(=O)C3(C)C)cc(F)c2n1", "note": "[Compound of formula I, 2-chloro-4-(3-(2-ethyl-9-fluoro-4-oxo-4H-pyrido[1,2-a]pyrimidin-7-yl)-4,4-dimethyl-5-oxo-2-thioimidazolidin-1-yl)benzonitrile]", "values": [{"measurement": "Brain-to-plasma concentration ratio", "setting": "[1]", "value": 0.0322}, {"measurement": "Concentration in brain", "setting": "[1]", "value": 265, "unit": "nmol/kg"}, {"measurement": "Concentration in plasma", "setting": "[1]", "value": 8.26, "unit": "µM"}, {"measurement": "bioavailability", "setting": "[2]", "value": 68.1, "unit": "%"}, {"measurement": "Relative tumor proliferation rate T/C", "setting": "[3]; 10 mg/kg PO QD", "value": 43.93, "unit": "%"}, {"measurement": "TGI", "setting": "[3]; 10 mg/kg PO QD", "value": 62.75, "unit": "%"}, {"measurement": "Tolerance of the animals to the test compound", "setting": "[3]; 10 mg/kg and 20 mg/kg PO QD × 21 days", "value": "good tolerance"}, {"measurement": "Relative tumor proliferation rate T/C", "setting": "[3]; 20 mg/kg PO QD", "value": 32.37, "unit": "%"}, {"measurement": "TGI", "setting": "[3]; 20 mg/kg PO QD", "value": 76.16, "unit": "%"}]}, {"molecule": "CCc1cc(=O)n2cc(N3C(=S)N(c4ccc(C#N)c(Cl)c4)C(=O)C3(C)C)cc(F)c2n1", "note": "[crystal of the compound of formula I, 2-chloro-4-(3-(2-ethyl-9-fluoro-4-oxo-4H-pyrido[1,2-a]pyrimidin-7-yl)-4,4-dimethyl-5-oxo-2-thioimidazolidin-1-yl)benzonitrile]", "values": [{"measurement": "Purity of the crystal (stability)", "setting": "[4]; 75% RH, 40° C., 1 month", "value": 99.17, "unit": "%"}, {"measurement": "Purity of the crystal (stability)", "setting": "[4]; 75% RH, 40° C., 2 months", "value": 99.14, "unit": "%"}, {"measurement": "Purity of the crystal (stability)", "setting": "[4]; 75% RH, 40° C., 3 months", "value": 99.16, "unit": "%"}, {"measurement": "Purity of the crystal (stability)", "setting": "[4]; 75% RH, 40° C., 10 days", "value": 99.15, "unit": "%"}, {"measurement": "Purity of the crystal (stability)", "setting": "[4]; 75% RH, 60° C., 1 day", "value": 99.14, "unit": "%"}, {"measurement": "Purity of the crystal (stability)", "setting": "[4]; 75% RH, 60° C., 10 days", "value": 99.16, "unit": "%"}, {"measurement": "Purity of the crystal (stability)", "setting": "[4]; 92.5% RH, room temperature, 10 days", "value": "99.18% and 99.14%"}, {"measurement": "Purity of the crystal (stability)", "setting": "[4]; Initial test sample", "value": 99.17, "unit": "%"}, {"measurement": "Purity of the crystal (stability)", "setting": "[4]; wrapped with tin foil paper, exposed to visible light of 1200000 Lux and UV of 200 W at room temperature", "value": 99.13, "unit": "%"}, {"measurement": "ΔW % (moisture gain)", "setting": "[5]", "value": 1.018, "unit": "%"}]}]}
